From patent publication US10975077B2 (Novira Therapeutics, Inc., priority 2016, dated 2021)

tested on: HBV (encapsidated HBV DNA, HepG2.2.15 cells); experiment: HBV replication inhibition assay, BDNA assay in HepG2.2.15 cells; type: cell-based; conditions: Hepatitis B virus, HepG2.2.15, Activity in BDNA-assay
Procedure, shortened: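 Encapsidated HBV DNA in DNase-treated, proteinase K-lysed supernatant was measured by branched DNA after 6 days' compound exposure, refreshed on day 3, of HepG2.2.15 cells in 0.5% DMSO. Signals normalized to DMSO-treated wells; EC50 from nonlinear regression of inhibition against log concentration.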

Q: With `CN1CC(F)Cn2nc3c(c2C1=O)CN(C(=O)Nc1ccc(F)c(Br)c1)CC3` (stereo not drawn) [Compound 007, N-(3-bromo-4-fluorophenyl)-8-fluoro-10-methyl-11-oxo-1,3,4,7,8,9,10,11-octahydro-2H-pyrido[4′,3′:3,4]pyrazolo[1,5-a][1,4]diazepine-2-carboxamide] as the molecule, how does the EC50 read?
A: 1 to 100 nM

Q: Which EC50 does the source give for `CN1CC(F)Cn2nc3c(c2C1=O)CN(C(=O)Nc1ccnc(Br)c1F)CC3` (stereo not drawn) [Compound 008, N-(2-bromo-3-fluoropyridin-4-yl)-8-fluoro-10-methyl-11-oxo-1,3,4,7,8,9,10,11-octahydro-2H-pyrido[4′,3′:3,4]pyrazolo[1,5-a][1,4]diazepine-2-carboxamide] here?
A: 1 to 100 nM

Q: How did the EC50 turn out when `CN1CC(F)Cn2nc3c(c2C1=O)CN(C(=O)Nc1ccc(F)c(C#N)c1)CC3` (stereo not drawn) [Compound 009, N-(3-cyano-4-fluorophenyl)-8-fluoro-10-methyl-11-oxo-1,3,4,7,8,9,10,11-octahydro-2H-pyrido[4′,3′:3,4]pyrazolo[1,5-a][1,4]diazepine-2-carboxamide] was run?
A: 1 to 100 nM

Q: Which EC50 does the source give for `Cc1cc(NC(=O)N2CCc3nn4c(c3C2)C(=O)N(C)CC(F)C4)ccc1F` (stereo not drawn) [Compound 010, 8-fluoro-N-(4-fluoro-3-methylphenyl)-10-methyl-11-oxo-1,3,4,7,8,9,10,11-octahydro-2H-pyrido[4′,3′:3,4]pyrazolo[1,5-a][1,4]diazepine-2-carboxamide] here?
A: 1 to 100 nM

Q: How did the EC50 turn out when `CN1CC(F)Cn2nc3c(c2C1=O)CN(C(=O)Nc1ccc(F)c(C(F)(F)F)c1)CC3` (stereo not drawn) [Compound 011, 8-fluoro-N-(4-fluoro-3-(trifluoromethyl)phenyl)-10-methyl-11-oxo-1,3,4,7,8,9,10,11-octahydro-2H-pyrido[4′,3′:3,4]pyrazolo[1,5-a][1,4]diazepine-2-carboxamide] was run?
A: 1 to 100 nM

Q: With `CN1CC(F)Cn2nc3c(c2C1=O)CN(C(=O)Nc1cc(Cl)c(F)cc1F)CC3` (stereo not drawn) [Compound 012, N-(5-chloro-2,4-difluorophenyl)-8-fluoro-10-methyl-11-oxo-1,3,4,7,8,9,10,11-octahydro-2H-pyrido[4′,3′:3,4]pyrazolo[1,5-a][1,4]diazepine-2-carboxamide] as the molecule, how does the EC50 read?
A: 1 to 100 nM

Q: Which EC50 does the source give for `CN1CC(F)Cn2nc3c(c2C1=O)CN(C(=O)Nc1cc(Br)c(F)cc1F)CC3` (stereo not drawn) [Compound 013, N-(5-bromo-2,4-difluorophenyl)-8-fluoro-10-methyl-11-oxo-1,3,4,7,8,9,10,11-octahydro-2H-pyrido[4′,3′:3,4]pyrazolo[1,5-a][1,4]diazepine-2-carboxamide] here?
A: 1 to 100 nM

Q: `CC1CN(C)C(=O)c2c3c(nn2C1)CCN(C(=O)Nc1ccc(F)c(Cl)c1)C3` (stereo not drawn) [Compound 014, N-(3-chloro-4-fluoro-phenyl)-8,10-dimethyl-11-oxo-1,3,4,7,8,9-hexahydropyrido[2,3]pyrazolo[2,4-b][1,4]diazepine-2-carboxamide] was tested. Which EC50 did it give?
A: 1 to 100 nM

Q: For `CN1CCCn2nc3c(c2C1=O)CN(C(=O)Nc1ccc(F)c(Cl)c1)CC3` [Compound 015, N-(3-chloro-4-fluoro-phenyl)-10-methyl-11-oxo-1,3,4,7,8,9-hexahydropyrido [2,3]pyrazolo[2,4-b][1,4]diazepine-2-carboxamide], which EC50 is on record?
A: 1 to 100 nM

Q: For `CCOC1CN(C)C(=O)c2c3c(nn2C1)CCN(C(=O)Nc1ccc(F)c(Cl)c1)C3` (stereo not drawn) [Compound 017, N-(3-chloro-4-fluorophenyl)-8-ethoxy-10-methyl-11-oxo-1,3,4,7,8,9,10,11-octahydro-2H-pyrido[4′,3′:3,4]pyrazolo[1,5-a][1,4]diazepine-2-carboxamide], which EC50 is on record?
A: 1 to 100 nM

Q: How did the EC50 turn out when `CN1CC(N)Cn2nc3c(c2C1=O)CN(C(=O)Nc1ccc(F)c(Cl)c1)CC3` (stereo not drawn) [Compound 019, 8-amino-N-(3-chloro-4-fluorophenyl)-10-methyl-11-oxo-1,3,4,7,8,9,10,11-octahydro-2H-pyrido[4′,3′:3,4]pyrazolo[1,5-a][1,4]diazepine-2-carboxamide] was run?
A: 100 to 500 nM

Q: With `CN1CC(N(C)C)Cn2nc3c(c2C1=O)CN(C(=O)Nc1ccc(F)c(Cl)c1)CC3` (stereo not drawn) [Compound 020, N-(3-chloro-4-fluorophenyl)-8-(dimethylamino)-10-methyl-11-oxo-1,3,4,7,8,9,10,11-octahydro-2H-pyrido[4′,3′:3,4]pyrazolo[1,5-a][1,4]diazepine-2-carboxamide] as the molecule, how does the EC50 read?
A: 1 to 100 nM

Q: `CN1CC(N2CCOCC2)Cn2nc3c(c2C1=O)CN(C(=O)Nc1ccc(F)c(Cl)c1)CC3` (stereo not drawn) [Compound 021, N-(3-chloro-4-fluorophenyl)-10-methyl-8-morpholino-11-oxo-1,3,4,7,8,9,10,11-octahydro-2H-pyrido[4′,3′:3,4]pyrazolo[1,5-a][1,4]diazepine-2-carboxamide] was tested. Which EC50 did it give?
A: 100 to 500 nM

Q: `CN1CC(N2CC(F)(F)C2)Cn2nc3c(c2C1=O)CN(C(=O)Nc1ccc(F)c(Cl)c1)CC3` (stereo not drawn) [Compound 022, N-(3-chloro-4-fluorophenyl)-8-(3,3-difluoroazetidin-1-yl)-10-methyl-11-oxo-1,3,4,7,8,9,10,11-octahydro-2H-pyrido[4′,3′:3,4]pyrazolo[1,5-a][1,4]diazepine-2-carboxamide] was tested. Which EC50 did it give?
A: 100 to 500 nM

Q: `CN1CC(N2CCC2)Cn2nc3c(c2C1=O)CN(C(=O)Nc1ccc(F)c(Cl)c1)CC3` (stereo not drawn) [Compound 023, 8-(azetidin-1-yl)-N-(3-chloro-4-fluorophenyl)-10-methyl-11-oxo-1,3,4,7,8,9,10,11-octahydro-2H-pyrido[4′,3′:3,4]pyrazolo[1,5-a][1,4]diazepine-2-carboxamide] was tested. Which EC50 did it give?
A: 1 to 100 nM

Q: Which EC50 does the source give for `CN1CC(N2CCCC2)Cn2nc3c(c2C1=O)CN(C(=O)Nc1ccc(F)c(Cl)c1)CC3` (stereo not drawn) [Compound 024, N-(3-chloro-4-fluorophenyl)-10-methyl-11-oxo-8-(pyrrolidin-1-yl)-1,3,4,7,8,9,10,11-octahydro-2H-pyrido[4′,3′:3,4]pyrazolo[1,5-a][1,4]diazepine-2-carboxamide] here?
A: 1 to 100 nM

Q: `CSC1CN(C)C(=O)c2c3c(nn2C1)CCN(C(=O)Nc1ccc(F)c(Cl)c1)C3` (stereo not drawn) [Compound 025, N-(3-chloro-4-fluorophenyl)-10-methyl-8-(methylthio)-11-oxo-1,3,4,7,8,9,10,11-octahydro-2H-pyrido[4′,3′:3,4]pyrazolo[1,5-a][1,4]diazepine-2-carboxamide] was tested. Which EC50 did it give?
A: 1 to 100 nM

Q: With `CN1CC(S(C)(=O)=O)Cn2nc3c(c2C1=O)CN(C(=O)Nc1ccc(F)c(Cl)c1)CC3` (stereo not drawn) [Compound 027, N-(3-chloro-4-fluoro-phenyl)-10-methyl-8-methylsulfonyl-11-oxo-1,3,4,7,8,9-hexahydropyrido[2,3]pyrazolo[2,4-b][1,4]diazepine-2-carboxamide] as the molecule, how does the EC50 read?
A: 1 to 100 nM

Q: With `COC(=O)CC1CN(C)C(=O)c2c3c(nn2C1)CCN(C(=O)Nc1ccc(F)c(Cl)c1)C3` (stereo not drawn) [Compound 028, methyl 2-(2-((3-chloro-4-fluorophenyl)carbamoyl)-10-methyl-11-oxo-1,3,4,7,8,9,10,11-octahydro-2H-pyrido[4′,3′:3,4]pyrazolo[1,5-a][1,4]1diazepin-8-yl)acetate] as the molecule, how does the EC50 read?
A: 100 to 500 nM

Q: Which EC50 does the source give for `CN1CC(CCO)Cn2nc3c(c2C1=O)CN(C(=O)Nc1ccc(F)c(Cl)c1)CC3` (stereo not drawn) [Compound 029] here?
A: 100 to 500 nM

Q: `CCOC(=O)C1CN(C)C(=O)c2c3c(nn2C1)CCN(C(=O)Nc1ccc(F)c(Cl)c1)C3` (stereo not drawn) [Compound 030, ethyl 2-((3-chloro-4-fluorophenyl)carbamoyl)-10-methyl-11-oxo-2,3,4,7,8,9,10,11-octahydro-1H-pyrido[4′,3′:3,4]pyrazolo[1,5-a][1,4]diazepine-8-carboxylate] was tested. Which EC50 did it give?
A: > 1000 nM

Q: How did the EC50 turn out when `CNC(=O)C1CN(C)C(=O)c2c3c(nn2C1)CCN(C(=O)Nc1ccc(F)c(Cl)c1)C3` (stereo not drawn) [Compound 031, N2-(3-chloro-4-fluorophenyl)-N8,10-dimethyl-11-oxo-1,3,4,7,8,9,10,11-octahydro-2H-pyrido[4′,3′:3,4]pyrazolo[1,5-a][1,4]diazepine-2,8-dicarboxamide] was run?
A: 1 to 100 nM

Q: `CN(C)C(=O)C1CN(C)C(=O)c2c3c(nn2C1)CCN(C(=O)Nc1ccc(F)c(Cl)c1)C3` (stereo not drawn) [Compound 032, N2-(3-chloro-4-fluorophenyl)-N8,N8,10-trimethyl-11-oxo-1,3,4,7,8,9,10,11-octahydro-2H-pyrido[4′,3′:3,4]pyrazolo [1,5-a][1,4]diazepine-2,8-dicarboxamide] was tested. Which EC50 did it give?
A: 100 to 500 nM

Q: Which EC50 does the source give for `CN1CC(C(C)(C)O)Cn2nc3c(c2C1=O)CN(C(=O)Nc1ccc(F)c(Cl)c1)CC3` (stereo not drawn) [Compound 033, N-(3-chloro-4-fluorophenyl)-8-(2-hydroxypropan-2-yl)-10-methyl-11-oxo-3,4,8,9,10,11-hexahydro-1H-pyrido[4′,3′:3,4]pyrazolo[1,5-a][1,4]diazepine-2 (7H)-carboxamide] here?
A: 1 to 100 nM

Q: With `CC(O)C1CN(C)C(=O)c2c3c(nn2C1)CCN(C(=O)Nc1ccc(F)c(Cl)c1)C3` (stereo not drawn) [Compound 034, N-(3-chloro-4-fluorophenyl)-8-(1-hydroxyethyl)-10-methyl-11-oxo-1,3,4,7,8,9,10,11-octahydro-2H-pyrido[4′,3′:3,4]pyrazolo[1,5-a][1,4]diazepine-2-carboxamide] as the molecule, how does the EC50 read?
A: 100 to 500 nM

Q: How did the EC50 turn out when `CCC(O)C1CN(C)C(=O)c2c3c(nn2C1)CCN(C(=O)Nc1ccc(F)c(Cl)c1)C3` (stereo not drawn) [Compound 035] was run?
A: 1 to 100 nM

Q: With `CN1CC(C(O)C2CC2)Cn2nc3c(c2C1=O)CN(C(=O)Nc1ccc(F)c(Cl)c1)CC3` (stereo not drawn) [Compound 036] as the molecule, how does the EC50 read?
A: 1 to 100 nM

Q: How did the EC50 turn out when `CN1CC(C(F)F)Cn2nc3c(c2C1=O)CN(C(=O)Nc1ccc(F)c(Cl)c1)CC3` (stereo not drawn) [Compound 037, N-(3-chloro-4-fluorophenyl)-8-(difluoromethyl)-10-methyl-11-oxo-1,3,4,7,8,9,10,11-octahydro-2H-pyrido[4′,3′:3,4]pyrazolo[1,5-a][1,4]diazepine-2-carboxamide] was run?
A: 1 to 100 nM

Q: How did the EC50 turn out when `O=C(Nc1ccc(F)c(Cl)c1)N1CCc2nn3c(c2C1)C(=O)N(CC(F)F)CCC3` [Compound 038, N-(3-chloro-4-fluorophenyl)-10-(2,2-difluoroethyl)-11-oxo-1,3,4,7,8,9,10,11-octahydro-2H-pyrido[4′,3′:3,4]pyrazolo[1,5-a][1,4]diazepine-2-carboxamide] was run?
A: 1 to 100 nM

Q: Which EC50 does the source give for `CC1CCn2nc3c(c2C(=O)N1C)CN(C(=O)Nc1ccc(F)c(Cl)c1)CC3` (stereo not drawn) [Compound 039, N-(3-chloro-4-fluorophenyl)-9,10-dimethyl-11-oxo-1,3,4,7,8,9,10,11-octahydro-2H-pyrido[4′,3′:3,4]pyrazolo[1,5-a][1,4]diazepine-2-carboxamide] here?
A: 1 to 100 nM
